Laboratory results from patent publication US10206907B2, “Compounds useful for the treatment of degenerative and inflammatory diseases” (GALAPAGOS NV, priority 2008, dated 2019).
Where two headings read alike, the source gives them in different places.

Key:
[1] = target: Recombinant human JAK2 catalytic domain (Homo sapiens (Human), UniProt O60674); assay: JAK2 inhibition assay; assay type: biochemical; settings: semi-quantitative score
Method in brief: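 Activity was taken as vehicle cpm minus cpm with 10 μM staurosporine, and inhibition was expressed on that scale. Incubation was 90 min at 30 °C, followed by acid quench, phosphoric acid washes and Microscint counting. Compounds were tested as dose series to obtain IC50.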

MMP13 in SW1353 cells = assay: OSM/IL-1β signaling assay (MMP13 levels in SW1353 cells); assay type: cell-based; settings: Homo sapiens; SW1353 cells, OSM and IL-1β triggered, MMP13 levels 48 hours after triggering; read-out: MMP13 EC50;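 also: secreted MMP13 captured by antibody, activated with APMA and its activity read by fluorescence, inhibition scaled between vehicle-treated triggered wells (0%) and untriggered wells (100%)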
Description: The cells were seeded in 96 well plates at 15,000 cells/well in a volume of 120 μL DMEM (Invitrogen) containing 10% (v/v) FBS and 1% penicillin/streptomycin (InVitrogen) incubated at 37° C. […] MMP13 activity was measured using an antibody capture activity assay. […] Next the wells were washed twice with PBS+0.05% Tween followed by MMP13 activation by addition of 35 μL of a 1.5 mM 4-Aminophenylmercuric acetate (APMA) (Sigma, A9563) solution and incubation at 37° C. for 1 hour. […] Percentage inhibition=((fluorescence determined in the presence of vehicle−fluorescence determined for sample with test compound present) divided by (fluorescence determined in the presence of vehicle−fluorescence determined for sample without trigger))*100%.

[2] = target: Recombinant human TYK2 catalytic domain (Homo sapiens (Human), UniProt P29597); assay: TYK2 inhibition assay; assay type: biochemical; settings: semi-quantitative score
Sequence of Recombinant human TYK2 catalytic domain (P29597 871-1187): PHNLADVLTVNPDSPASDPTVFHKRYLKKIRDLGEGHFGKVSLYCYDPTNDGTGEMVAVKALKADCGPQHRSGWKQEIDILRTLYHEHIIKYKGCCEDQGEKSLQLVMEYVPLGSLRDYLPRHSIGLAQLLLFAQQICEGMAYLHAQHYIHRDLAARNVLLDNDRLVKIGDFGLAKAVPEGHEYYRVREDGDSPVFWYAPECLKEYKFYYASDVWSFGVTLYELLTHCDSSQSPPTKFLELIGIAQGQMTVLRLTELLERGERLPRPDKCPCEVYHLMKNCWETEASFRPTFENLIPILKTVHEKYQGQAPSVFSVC
Method in brief: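 Recombinant human TYK2 catalytic domain; radiometric kinase reaction run 90 min at 30° C, stopped with phosphoric acid, washed and counted by scintillation.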

[3] = target: Recombinant human JAK3 catalytic domain (Homo sapiens (Human), UniProt P52333); assay: JAK3 inhibition assay; assay type: biochemical
Sequence of Recombinant human JAK3 catalytic domain (P52333 781-1124): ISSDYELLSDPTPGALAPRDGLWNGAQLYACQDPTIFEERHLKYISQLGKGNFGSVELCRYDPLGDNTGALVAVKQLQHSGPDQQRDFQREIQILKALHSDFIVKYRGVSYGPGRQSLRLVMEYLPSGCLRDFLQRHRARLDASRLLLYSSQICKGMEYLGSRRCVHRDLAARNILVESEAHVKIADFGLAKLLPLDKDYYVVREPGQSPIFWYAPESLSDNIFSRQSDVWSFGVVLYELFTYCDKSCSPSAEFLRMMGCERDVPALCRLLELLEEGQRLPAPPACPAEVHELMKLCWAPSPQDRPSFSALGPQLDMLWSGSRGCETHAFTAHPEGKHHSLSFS

TNF-alpha release = assay: Septic shock model (LPS-induced TNF release); assay type: in vivo, mouse; settings: 30 mg/kg po, BALB/cJ mice, LPS ip; statistically significant
Description: Injection of lipopolysaccharide (LPS) induces a rapid release of soluble tumour necrosis factor (TNF-alpha) into the periphery. This model is used to analyse prospective blockers of TNF release in vivo.
Six BALB/cJ female mice (20 g) per group were treated at the intended dosing once, po. Thirty minutes later, LPS (15 μg/kg; E. Coli serotype 0111:B4) was injected ip. Ninety minutes later, mice were euthanized and blood was collected. Circulating TNF alpha levels were determined using commercially available ELISA kits. Dexamethasone (5 μg/kg) was used as a reference anti-inflammatory compound. Selected compounds are tested at one or multiple doses, e.g. 3 and/or 10 and/or 30 mg/kg, po.

[4] = Microsomal stability, human liver microsomes; assay type: in vitro ADME; settings: percentage of compound remaining after 60 minutes, 3 μM compound
Method in brief: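 Percent parent remaining after 60 min was determined by LCMS against a time-zero sample quenched before microsome addition. Incubations ran at 37°C with liver microsomes and a G6PDH-based NADPH-regenerating cofactor mix. Quench was MeOH or ACN (1:1).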

[5] = Caco2 permeability (bi-directional); assay type: in vitro ADME, human; settings: human, pH 7.4; for Papp A→B at 1 h, 10 µM: Caco-2, apical to basolateral, read-out: Papp (A2B); for efflux ratio at 1 h, 10 µM: Caco-2, ratio of PappB>A/PappA>B
Method in brief: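 Compound concentrations in both chambers were measured by LC-MS/MS after 1 h incubation at 37 °C on an orbital shaker. Efflux ratio is PappB>A over PappA>B. Lucifer Yellow (50 μM in donor) confirmed layer integrity, with permeability of ≤100 nm/s required.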

[6] = target: Recombinant human JAK1 catalytic domain (Homo sapiens (Human), UniProt P23458); assay: JAK1 inhibition assay; assay type: biochemical
Sequence of Recombinant human JAK1 catalytic domain (P23458 850-1154): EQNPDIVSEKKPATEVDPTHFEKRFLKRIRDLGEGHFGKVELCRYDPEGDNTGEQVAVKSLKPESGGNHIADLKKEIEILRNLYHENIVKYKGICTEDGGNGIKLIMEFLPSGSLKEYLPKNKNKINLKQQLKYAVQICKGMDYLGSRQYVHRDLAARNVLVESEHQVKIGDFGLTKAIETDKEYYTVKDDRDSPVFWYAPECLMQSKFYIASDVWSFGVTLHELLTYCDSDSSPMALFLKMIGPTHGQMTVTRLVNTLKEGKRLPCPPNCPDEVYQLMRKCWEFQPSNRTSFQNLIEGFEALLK
Method in brief: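 IC50 values come from dose-response series, with each point expressed as percent inhibition of cpm. Vehicle sets full activity and 10 μM staurosporine sets background. Incorporated radioactivity counted by scintillation after washing with 75 mM phosphoric acid.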

Sequence of Recombinant human JAK2 catalytic domain (O60674 808-1132): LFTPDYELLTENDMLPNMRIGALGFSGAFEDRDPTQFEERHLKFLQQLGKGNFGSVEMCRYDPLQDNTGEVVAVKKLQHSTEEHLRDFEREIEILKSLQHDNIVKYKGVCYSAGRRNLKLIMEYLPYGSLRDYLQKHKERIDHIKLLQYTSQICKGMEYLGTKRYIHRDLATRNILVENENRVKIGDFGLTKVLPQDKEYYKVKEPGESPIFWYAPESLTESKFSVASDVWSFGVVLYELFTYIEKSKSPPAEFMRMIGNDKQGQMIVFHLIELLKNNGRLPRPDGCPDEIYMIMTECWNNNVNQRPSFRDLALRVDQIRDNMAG

Structure (SMILES) | IC50 [1] [nM] | EC50 (MMP13 in SW1353 cells) [nM] | IC50 ([3]; semi-quantitative score) [nM] | Microsomal Stability Human (%) [4] | Papp A→B at 1 h, 10 µM [5] [×10⁻⁶ cm/s] | efflux ratio at 1 h, 10 µM [5] | IC50 ([6]; semi-quantitative score) [nM] | IC50 [2] [nM] | reduction in the TNF release (TNF-alpha release) [%] | IC50 [6] [nM] | IC50 [3] [nM]
O=C(Nc1nc2cccc(-c3ccc(CN4CCOCC4)cc3)n2n1)C1CC1 [Compound 18, N-(5-(4-(morpholinomethyl)phenyl)-[1,2,4]triazolo[1,5-a]pyridin-2-yl)cyclopropanecarboxamide] | > 1000 | > 1000 | > 1000 | **** (**** 76-100) | – | – | – | > 1000 | > 50 | – | –
N#Cc1ccc(COc2ccc(-c3cccc4nc(NC(=O)C5CC5)nn34)cc2)cn1 [Compound 176, N-(5-(4-((6-cyanopyridin-3-yl)methoxy)phenyl)-[1,2,4]triazolo[1,5-a]pyridin-2-yl)cyclopropanecarboxamide] | < 100 | 1 to 500 | – | **** (**** 76-100) | – | 0.8 | – | < 100 | > 50 | < 100 | < 100

Further lines, with some results ahead:

IC50 [1] [nM] | EC50 (MMP13 in SW1353 cells) [nM] | IC50 ([3]; semi-quantitative score) [nM] | Microsomal Stability Human (%) [4] | Papp A→B at 1 h, 10 µM [5] [×10⁻⁶ cm/s] | efflux ratio at 1 h, 10 µM [5] | IC50 ([6]; semi-quantitative score) [nM] | Structure (SMILES) | IC50 [2] [nM] | reduction in the TNF release (TNF-alpha release) [%] | IC50 [6] [nM] | IC50 [3] [nM]
– | > 1000 | – | *** (*** 51-75) | 14.7 | 2 | < 100 | CC1CCCN(C(=O)c2ccc(-c3cccc4nc(NC(=O)C5CC5)nn34)cc2)C1 (stereo not shown) [Compound 145, N-(5-(4-(3-methylpiperidine-1-carbonyl)phenyl)-[1,2,4]triazolo[1,5-a]pyridin-2-yl)cyclopropanecarboxamide] | – | – | – | –
101 to 500 | > 1000 | < 100 | **** (**** 76-100) | 6.05 | 9.3 | < 100 | CC1CN(C(=O)c2ccc(-c3cccc4nc(NC(=O)C5CC5)nn34)cc2)CC(C)O1 (stereo not shown) [Compound 215, Cyclopropanecarboxylic acid {5-[4-(2,6-dimethyl-morpholine-4-carbonyl)-phenyl]-[1,2,4]triazolo[1,5-a]pyridin-2-yl}-amide] | – | > 50 | – | –
101 to 500 | 501 to 1000 | 101 to 500 | **** (**** 76-100) | 6.5 | 5.5 | < 100 | CC1(C)CN(C(=O)c2ccc(-c3cccc4nc(NC(=O)C5CC5)nn34)cc2)C1 [Compound 330, Cyclopropanecarboxylic acid (5-[4-(3,3-dimethyl-azetidine-1-carbonyl)-phenyl]-[1,2,4]triazolo[1,5-a]pyridin-2-yl}-amide] | – | – | – | –
